Consider one compound from publication PMC4621012 (Molecules, 2014).

The target of the test is GRK5 (Bos taurus, UniProt P43249). The test is described as follows: DSF (ThermoFluor, ANS) melting point shift, dose response, reconfirmed by replating; no Kd. It counts as binding. On the technique in general: Differential scanning fluorimetry follows unfolding on heating by fluorescence.
GRK5, sequence (P43249 whole entry): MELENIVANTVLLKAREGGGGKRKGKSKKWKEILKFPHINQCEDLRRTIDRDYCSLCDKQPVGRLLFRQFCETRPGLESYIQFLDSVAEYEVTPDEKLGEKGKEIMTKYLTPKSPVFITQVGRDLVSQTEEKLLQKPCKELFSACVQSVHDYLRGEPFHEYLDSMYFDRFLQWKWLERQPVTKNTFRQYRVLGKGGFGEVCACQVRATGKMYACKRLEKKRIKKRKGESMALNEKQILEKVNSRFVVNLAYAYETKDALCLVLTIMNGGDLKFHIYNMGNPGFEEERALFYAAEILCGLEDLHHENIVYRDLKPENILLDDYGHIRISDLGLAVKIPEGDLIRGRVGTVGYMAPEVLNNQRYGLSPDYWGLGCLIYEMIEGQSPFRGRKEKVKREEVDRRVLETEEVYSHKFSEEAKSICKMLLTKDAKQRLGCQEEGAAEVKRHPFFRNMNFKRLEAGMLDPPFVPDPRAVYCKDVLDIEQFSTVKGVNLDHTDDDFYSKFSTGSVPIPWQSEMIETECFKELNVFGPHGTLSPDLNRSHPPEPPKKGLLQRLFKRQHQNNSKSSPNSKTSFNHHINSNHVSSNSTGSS

As to `CN[C@@H]1C[C@H]2O[C@@](C)([C@@H]1OC)n1c3ccccc3c3c4c(c5c6ccccc6n2c5c31)C(=O)NC4` [staurosporine], the “DSF (ThermoFluor, ANS) melting point shift, dose response, reconfirmed by replat” value is on record as “Staurosporine, which served effectively as a positive control, was not analyzed further”.
